In patent EP0515684A1, “INHIBITOR OF DENATURED LDL FORMATION” (Chugai Seiyaku Kabushiki Kaisha, priority 1990, dated 1991):

How the values were obtained:
[1] = system: rabbit or human LDL; test: Electrophoretic mobility in agarose gel of LDL oxidised with Cu2+; assay type: biochemical; settings: 10 µM of Cu²⁺, 37°C approximately 24 hours, expressed by regarding the mobility of LDL as 1.00 (Control 1.61)
Method: (§1) The biological properties of the compounds as shown hereinafter were examined by the following methods. • (1) The amount of thiobarbituric acid reactive substances: 5 µM of Cu²⁺ was added to rabbit LDL, prepared by the method reported by Havel et al., followed by heating. Then the antioxidative effect of each compound was examined by using the thiobarbituric acid reactive substances (TBARS) thus formed as the guidance. […] 0.5 ml of an n-butanol solution containing 0.2 µM of MCLA and 10 mM of linoleic acid was introduced into a vial for luminescence analysis and the luminescence due to autoxidation was measured in a thermostat at 37°C. […] To the obtained plasma, were added EDTA-NaN₃ (a 5% solution of pH 7.4) and a benzamidine solution (60 mg/ml) respectively in amounts of 0.8 ml and 0.5 ml per 100 ml of the plasma. Then rabbit or human LDL (1.019 < d < 1.063) was prepared by ultracentrifugation in accordance with the method of Havel et al.*. After performing the ultracentifugation again, the LDL was washed and concentrated. Then it was dialyzed against a 150 mM NaCl - 2 mM Na₂HPO₄ solution at 4°C and KBr was removed. The protein content was determined by Lowry method** and then the LDL was subjected to the subsequent procedure. (Measurement of electrophoretic mobility in agarose gel) 10 µM of Cu²⁺ and a specimen were added to an LDL-containing solution (3.00 µg protein/ml). After incubating at 37°C for approximately 24 hours, a portion (1 µl) thereof was applied onto an agarose gel film (Universal Film, manufactured by Corning Co.) and then subjected to electrophoresis (Agarose Gel Electrophoresis System for Lipoprotein, manufactured by Corning Co.). Thus the mobility was measured by staining lipids with Fat Red 7B. […] After 3 days, peritoneal macrophages were collected from the mouse and incubated in an RPMI 1640 medium containing 10% of FBS. The macrophages were used in the • examination on the next day.

[2] = system: rabbit LDL; test: Amount of thiobarbituric acid reactive substances (TBARS) formed on Cu2+ oxidation of LDL; assay type: biochemical; settings: 5 µM of Cu²⁺ added to rabbit LDL, followed by heating
Method: as §1

Row | SMILES | Mobility ([1]; Compound conc. 10 x 10⁻⁶ M) | Formed TBARS (%) ([2]; Compound conc. 10^-5 M, 10 µM) | Formed TBARS (%) ([2]; Compound conc. 10^-6 M, 1 µM) | Mobility ([1]; Compound conc. 100 x 10⁻⁶ M)
1 | COc1cc(NCc2ccccc2)cc(OC)c1OC [Compound 1, N-benzyl-3,4,5-trimethoxyaniline] | 1.17 | 33 | 49 | 
2 | COc1cc(NCc2nccn2CC=C(C)CCC=C(C)CCC=C(C)C)cc(OC)c1OC [Compound 100] |  | 13 | 81 | 
3 | COc1cc(NC2CCOc3ccccc32)cc(OC)c1OC (centres unmarked) [Compound 101] |  | 18 | 41 | 
4 | COc1cc(NCC2CCCC2)cc(OC)c1OC [Compound 102] |  | 15 | 27 | 
5 | COc1cc(NCC2CCCCC2)cc(OC)c1OC [Compound 103] |  | 8 | 23 | 
6 | COc1cc(N(CC2CCCCC2)CC2CCCCC2)cc(OC)c1OC [Compound 104] |  | 23 | 31 | 
7 | COc1cc(NC(C)C2CCCCC2)cc(OC)c1OC (centres unmarked) [Compound 105] |  | 8 | 22 | 
8 | CCCC(Nc1cc(OC)c(OC)c(OC)c1)C1CCCCC1 (centres unmarked) [Compound 106] |  | 8 | 16 | 
9 | C=CCC(Nc1cc(OC)c(OC)c(OC)c1)C1CCCCC1 (centres unmarked) [Compound 107] |  | 7 | 20 | 
10 | CCCCC(Nc1cc(OC)c(OC)c(OC)c1)C1CCCCC1 (centres unmarked) [Compound 108] |  | 8 | 21 | 
11 | COc1cc(NC2CCCC3CCCCC32)cc(OC)c1OC (centres unmarked) [Compound 109] |  | 10 | 20 | 
12 | COc1cc(NC2CCC3CCCCC3C2)cc(OC)c1OC (centres unmarked) [Compound 110] |  | 7 | 16 | 
13 | CCCCCCCCCCCCNc1cc(OC)c(OC)c(OC)c1 [Compound 113] |  | 29 | 66 | 
14 | CCCCCCCCCCCCN(CCCCCCCCCCCC)c1cc(OC)c(OC)c(OC)c1 [Compound 114] |  | 93 | 94 | 
15 | COc1cc(NCCC(C)CCCC(C)CCCC(C)CCCC(C)C)cc(OC)c1OC (centres unmarked) [Compound 115] |  | 15 | 71 | 
16 | COc1cc(NCC=C(C)C)cc(OC)c1OC [Compound 116] |  | 33 | 61 | 
17 | COc1cc(N(CC=C(C)C)CC=C(C)C)cc(OC)c1OC [Compound 117] |  | 35 | 63 | 
18 | COc1cc(NC/C=C(\C)CCC=C(C)C)cc(OC)c1OC [Compound 118] | 1.17 | 37 | 56 | 
19 | CC(C)(C)c1cc(CNCc2ccccc2)cc(C(C)(C)C)c1O [Compound 185, N-benzyl-3,5-di-tert-butyl-4-hydroxybenzylamine] | 1.15 |  |  | 
20 | CC(C)=CCC/C(C)=C/CCC(C)Nc1ccc(-c2cc(C(C)(C)C)c(O)c(C(C)(C)C)c2)cc1 (stereo not drawn) [Compound 188, 4-[4'-[(trans-1,5,9-trimethyl-4,8-decadienyl)amino]phenyl]2,6-di-tert-butylphenol] | 1.15 |  |  | 
21 | O=C(Nc1ccc(C(=O)c2ccccc2)cc1)c1ccc(O)c(O)c1 [Compound 194] | 1.00 |  |  | 
22 | O=C(c1ccc(O)c(O)c1)N1CCN(C(c2ccccc2)c2ccccc2)CC1 [Compound 197] | 1.00 |  |  | 
23 | Oc1ccc(-c2onc3ccc(Cl)cc23)cc1O [Compound 205, 3-(3',4'-dihydroxyphenyl)-5-chlorobenzoiso-oxazole] | 1.00 |  |  | 
24 | CC(C)=CCC/C(C)=C\CC/C(C)=C/Cn1cnc2c1C(=O)C(C)=C(C)C2=O [Compound 206, 5,6-dimethyl-1-[(2E,6Z)-3,7,11-trimethyldodeca-2,6,10-trienyl]-4,7-benzimidazoledione] |  |  |  | 1.00
